≈ marks a conversion by molar mass, not a printed value. Where two headings read alike, the source gives them in different places.
Columns and labels:
E. aerogenes [1] = type: cell-based, Enterobacter aerogenes
Protocol: Antibiotic susceptibilities were determined by standard disk-diffusion (NCCLS Standard M2-A6) and agar-dilution (NCCLS Standard M7-A4) procedures. Disks were obtained from Becton Dickinson Microbiology Systems (Cockeysville, Md.). […] Throughout this study, results were interpreted using NCCLS criteria for disk diffusion (NCCLS M2-A6) and broth dilution (NCCLS M7-A4).

[2] = tested on: E. coli C600N transconjugants; experiment: Susceptibility of transconjugants; type: cell-based, Escherichia coli; conditions: E. coli C600N transconjugants of E. aerogenes 187, 200, 220, 184
Protocol: (§1) Antibiotic susceptibilities were determined by standard disk-diffusion (NCCLS Standard M2-A6) and agar-dilution (NCCLS Standard M7-A4) procedures. Disks were obtained from Becton Dickinson Microbiology Systems (Cockeysville, Md.). Disk-diffusion susceptibilities to the following antibiotics were determined, ampicillin; amoxicillin clavulanic acid; aztreonam; cefazolin; cefoxitin; cefuroxime; cefotaxime; ceftriaxone; ceftazidime; cefepime; imipenem; gentamicin; trimethoprim/sulfamethoxazole and ciprofloxacin. […] The following quality control strains were run simultaneously with the test organisms Escherichia coli ATCC 25922, Pseudomonas aeruginosa ATCC 27853, and E. coli ATCC 35218. Throughout this study, results were interpreted using NCCLS criteria for disk diffusion (NCCLS M2-A6) and broth dilution (NCCLS M7-A4).
[…]. The filter paper mating technique with overnight incubation at 37° C. were performed as described previously (Philippon et al., Antimicrob. Agents Chemother., 33:1131-1136 (1989)). Transconjugants were selected on LB (Luria Bertani) agar [Difco (Detroit, Mich.)] plates containing 12 μg per ml nalidixic acid and 20 μg per ml ampicillin.

K. pneumoniae 225 [3] = experiment: NCCLS disk diffusion assay; type: cell-based, Klebsiella pneumoniae; conditions: Kleb 225; for Zone Size: disk diffusion
[4] = tested on: E. coli C600 transconjugant; conditions: disk diffusion, Tc = transconjugate E. coli C600
[5] = tested on: E. coli HB101 transformant (17 kb plasmid); conditions: disk diffusion, Tr (17 kb) = transformant E. coli HB101
K. pneumoniae 225 [6] = experiment: MicroScan Walkaway microdilution susceptibility test; type: cell-based, Klebsiella pneumoniae; conditions: for MIC: Klebsiella pneumoniae, 225, read-out: MicroScan MIC
[7] = biological target: single beta-lactamase in P. mirabilis cell extracts (Escherichia coli, UniProt P62593, E102K/R162S); experiment: Spectrophotometric hydrolysis assay on crude beta-lactamase extracts; conditions: P. mirabilis Pit 85 extract, beta-lactamase pI 5.6; 100 μM substrate
[8] = biological target: single beta-lactamase in E. coli cell extracts (Escherichia coli, UniProt P62593, E102K/R162S); experiment: as above; conditions: E. coli Pit 64 extract, beta-lactamase pI 5.6; 100 μM substrate
[9] = biological target: single beta-lactamase in K. pneumoniae cell extracts (Klebsiella pneumoniae, UniProt P0AD64, G234S); experiment: as above; conditions: K. pneumoniae Pit 100 extract, beta-lactamase pI 7.6; 100 μM substrate
[10] = biological target: single beta-lactamase in K. pneumoniae cell extracts (Klebsiella pneumoniae, UniProt P0AD64, E235K/G234S); experiment: as above; conditions: K. pneumoniae Pit 82 extract, beta-lactamase pI 8.2; 100 μM substrate
[11] = biological target: single beta-lactamase in K. pneumoniae cell extracts (Escherichia coli, UniProt P62593, E102K/R162S); experiment: as above; conditions: K. pneumoniae Pit 16 extract, beta-lactamase pI 5.6; 100 μM substrate
E. aerogenes [12] = experiment: Disk diffusion susceptibility test; type: cell-based, Enterobacter aerogenes; conditions: all the E. aerogenes strains
Protocol: as §1

K. pneumoniae 225 [13] = experiment: NCCLS microdilution susceptibility test; type: cell-based, Klebsiella pneumoniae
P. mirabilis = experiment: Agar dilution MIC, South African isolates; type: cell-based, Proteus mirabilis; conditions: 4 strains, tzp with tazobactam 4 μg/ml
Description: During a period of three months in 1993, […] strains of Klebsiella pneumoniae (13 blood, 5 burn, 7 wound, 11 tracheal isolates), 4 strains of Proteus mirabilis (all wound isolates) and 4 strains of Escherichia coli (1 blood, 1 burn, 2 wound isolates) were collected from patients at the following medical centers in South Africa: Tygerberg Hospital near Cape Town, King Edward VIII Hospital in Durban, Chris Hani Baragwanath Hospital in Soweto and Pretoria Academic Hospital in Pretoria. The strains were provided in response to a request for all strains of Enterobacteriaceae, lacking inducible beta-lactamases, that were intermediate or resistant to cefotaxime or ceftazidime. […] Therefore accurate prevalence data were not obtained.
Antibiotic susceptibility was determined by standard disk diffusion (NCCLS Standard M2-T4, 1994) and agar dilution (NCCLS Standard M7-T2, 1994) procedures. Standard powders of antimicrobial agents were kindly provided by the following companies: piperacillin and tazobactam (Lederle Laboratories, Wayne, N.J.); cefoxitin and imipenem, (Merck, Rathway, N.J.); cefotaxime, (Hoechst-Roussel Pharmaceuticals Inc., Somerville, N.J.); ceftazidime, (Glaxo Group Research Ltd., Greenford, England); aztreonam and cefepime, (Bristol-Myers Squibb, Princeton, N.J.). Disks for agar diffusion were obtained from Becton Dickinson Microbiology Systems (Cockeysville, Md.). For quality control purposes, the following quality control strains were run simultaneously with the test organisms E. coli ATCC 25922, Pseudomonas aeruginosa ATCC 27853, E. coli ATCC 35218, and Staphylococcus aureus ATCC 29213. Throughout this study, results were interpreted using NCCLS criteria for disk diffusion (NCCLS Standard M2-T4, 1994) and broth dilution (NCCLS Standard M7-T2, 1994).

K. pneumoniae 225 [14] = experiment: Three-dimensional test (enzymatic inactivation of antibiotics); conditions: beta-lactamase-mediated hydrolysis by K. pneumoniae 225, lawn E. coli ATCC 25922
E. coli = experiment: Agar dilution MIC, South African isolates; type: cell-based, Escherichia coli; conditions: tzp with tazobactam 4 μg/ml
Description: (§2) The strains were provided in response to a request for all strains of Enterobacteriaceae, lacking inducible beta-lactamases, that were intermediate or resistant to cefotaxime or ceftazidime. […]

[15] = tested on: beta-lactamases in sonic extracts of E. aerogenes; experiment: Isoelectric focusing overlay: cefotaxime hydrolysis, inhibitors, induction; conditions: cefoxitin at 1/4 of the MIC
K. pneumoniae = experiment: Agar dilution MIC, South African isolates; type: cell-based, Klebsiella pneumoniae; conditions: tzp with tazobactam 4 μg/ml
Description: as §2

[16] = 1 E. aerogenes strain with Bush group 1 and group 2be (SHV-3) enzymes
[17] = 1 E. aerogenes strain with Bush group 1 and group 2be (SHV-5) enzymes
[18] = 29 E. aerogenes strains with Bush group 1 and group 2be (SHV-4) enzymes
[19] = resistance phenotype Ec1, 3 strains
[20] = resistance phenotype Ec2, 1 strain
[21] = resistance phenotype Kpn1, 8 strains
[22] = resistance phenotype Kpn2, 28 strains

Q: For gentamicin, which MIC range (E. aerogenes [1]; [16]) is on record?
A: Its MIC range is 8 mg/L.

Q: And the MIC range (E. aerogenes [1]; [17])?
A: The MIC range was >128 mg/L.

Q: And the MIC range (E. aerogenes [1]; [18])?
A: Its MIC range is 1 to 16 mg/L.

Q: What about the “susceptibility after transfer of plasmids encoding SHV beta-lactamase genes” value [2] of the same compound?
A: The value was “resistance”.

Q: What about the “Zone Size” value (K. pneumoniae 225 [3]) of the same compound?
A: Its value is 8 mm.

Q: And the “Zone Size” value [4]?
A: The value was 8 mm.

Q: What about the “Zone Size” value [5] of the same compound?
A: Its value is 25 mm.

Q: What about the MicroScan susceptibility result (K. pneumoniae 225 [6]; K. pneumoniae 225) of the same compound?
A: Its MicroScan susceptibility result is “Resistant”.

Q: What does the source list for `O=C(Cc1cccs1)N[C@@H]1C(=O)N2C(C(=O)O)=C(/C=C/c3ccc([N+](=O)[O-])cc3[N+](=O)[O-])CS[C@H]12` [Nitrocefin]?
A: Hydrolysis [7]: 138 nmol of substrate hydrolyzed/m; Hydrolysis [8]: 275 nmol of substrate hydrolyzed/m; Hydrolysis [9]: 159 nmol of substrate hydrolyzed/m; Hydrolysis [10]: 136 nmol of substrate hydrolyzed/m; Hydrolysis [11]: 114 nmol of substrate hydrolyzed/m

Q: Which Disk diffusion susceptibility (E. aerogenes [12]) does the source give for `CC1(C)S[C@@H]2[C@H](NC(=O)[C@H](N)c3ccccc3)C(=O)N2[C@H]1C(=O)O` [ampicillin] here?
A: Its Disk diffusion susceptibility is “resistant”.

Q: And the “Zone Size” value [5]?
A: The value was 7 mm.

Q: Which results are given for trimethoprim/sulfamethoxazole?
A: susceptibility after transfer of plasmids encoding SHV beta-lactamase genes [2]: resistance; Disk diffusion susceptibility (E. aerogenes [12]): resistant; Zone Size (K. pneumoniae 225 [3]): 6 mm; Zone Size [4]: 8 mm; Zone Size [5]: 31 mm; MicroScan susceptibility result (K. pneumoniae 225 [6]; K. pneumoniae 225): Resistant; MicroScan MIC (K. pneumoniae 225 [6]; MicroScan test, K. pneumoniae 225, unit not given): > 2/38

Q: Which Disk diffusion susceptibility (E. aerogenes [12]) does the source give for `Cc1nnc(SCC2=C(C(=O)O)N3C(=O)[C@@H](NC(=O)Cn4cnnn4)[C@H]3SC2)s1` [cefazolin] here?
A: The Disk diffusion susceptibility was “resistant”.

Q: And the MIC (K. pneumoniae 225 [13]; Klebsiella pneumoniae, 225)?
A: The MIC was > 64 mg/L.

Q: Which results are given for `CO[C@@]1(NC(=O)Cc2cccs2)C(=O)N2C(C(=O)O)=C(COC(N)=O)CS[C@@H]21` [cefoxitin]?
A: MIC range (P. mirabilis): 2 to 4 mg/L; MIC range (E. aerogenes [1]; [16]): >256 mg/L; MIC range (E. aerogenes [1]; [17]): >256 mg/L; MIC range (E. aerogenes [1]; [18]): >256 mg/L; three dimensional test (K. pneumoniae 225 [14]): positive; MIC (K. pneumoniae 225 [13]; Klebsiella pneumoniae, 225): > 64 mg/L; Zone Size (K. pneumoniae 225 [3]): 6 mm; MIC range (E. coli; [19]): 4 mg/L; MIC range (E. coli; [20]): 8 mg/L; Inducible by cefoxitin ([15]; SHV-3 strain (1), Bush group 1 enzyme pI 8.3): yes; Inducible by cefoxitin ([15]; SHV-3 strain (1), Bush group 2be enzyme pI 6.9): no; Inducible by cefoxitin ([15]; SHV-4 strains (29), Bush group 1 enzyme pI 8.3): yes; Inducible by cefoxitin ([15]; SHV-4 strains (29), Bush group 2be enzyme pI 7.8): no; Inducible by cefoxitin ([15]; SHV-5 strain (1), Bush group 1 enzyme pI 8.3): yes; Inducible by cefoxitin ([15]; SHV-5 strain (1), Bush group 2Be enzyme pI 8.0): no; Zone Size [4]: 7 mm; Zone Size [5]: 25 mm; MIC range (K. pneumoniae; [21]): 2 to 4 mg/L; MIC range (K. pneumoniae; [22]): 2 to 8 mg/L; MIC range (K. pneumoniae; resistance phenotype Kpn3 (K. pneumoniae Pit 68), 1 strain): > 128 mg/L; MIC range (K. pneumoniae; resistance phenotype Kpn3 (K. pneumoniae Pit 68), 1 strain, listed as fox): >128 mg/L

Q: How did the Disk diffusion susceptibility (E. aerogenes [12]) turn out when `O=C(O)c1cn(C2CC2)c2cc(N3CCNCC3)c(F)cc2c1=O` [ciprofloxacin] was run?
A: The Disk diffusion susceptibility was “susceptible”.

Q: And the MIC (K. pneumoniae 225 [13]; Klebsiella pneumoniae, 225)?
A: Its MIC is 0.5 mg/L (≈ 1.51 µM).

Q: And the Disk diffusion interpretation (K. pneumoniae 225 [3])?
A: Its Disk diffusion interpretation is “susceptible”.

Q: And the “Zone Size” value (K. pneumoniae 225 [3])?
A: Its value is 22 mm.

Q: What about the “Zone Size” value [4] of the same compound?
A: Its value is 31 mm.

Q: And the “Zone Size” value [5]?
A: Its value is 31 mm.

Q: What about the MIC (K. pneumoniae 225 [6]) of the same compound?
A: The MIC was 2 mg/L (≈ 6.04 µM).

Q: With amoxicillin/clavulanate as the compound, how does the Disk diffusion susceptibility (E. aerogenes [12]) read?
A: Its Disk diffusion susceptibility is “resistant”.

Q: What about the MIC (K. pneumoniae 225 [13]; NCCLS microdilution, Mueller-Hinton broth, K. pneumoniae 225) of the same compound?
A: The MIC was 64 mg/L.

Q: For `C[C@H]1[C@H](NC(=O)/C(=N\OC(C)(C)C(=O)O)c2csc(N)n2)C(=O)N1S(=O)(=O)O` [aztreonam], which MIC range (P. mirabilis) is on record?
A: Its MIC range is 0.5 to 2 mg/L.

Q: What about the “susceptibility after transfer of plasmids encoding SHV beta-lactamase genes” value [2] of the same compound?
A: Its value is “decreased susceptibility”.

Q: And the three dimensional test (K. pneumoniae 225 [14])?
A: Its three dimensional test is “positive”.

Q: And the MIC (K. pneumoniae 225 [13]; Klebsiella pneumoniae, 225)?
A: The MIC was > 64 mg/L.

Q: What about the “Zone Size” value (K. pneumoniae 225 [3]) of the same compound?
A: The value was 8 mm.

Q: What about the MIC range (E. coli; [19]) of the same compound?
A: The MIC range was 16 mg/L.

Q: What about the MIC range (E. coli; [20]) of the same compound?
A: Its MIC range is 2 mg/L.

Q: What about the Hydrolysis [7] of the same compound?
A: The Hydrolysis was 0.5 nmol of substrate hydrolyzed/m.

Q: And the “Zone Size” value [4]?
A: Its value is 7 mm.

Q: What about the “Zone Size” value [5] of the same compound?
A: Its value is 33 mm.

Q: And the Hydrolysis [8]?
A: Its Hydrolysis is 0.4 nmol of substrate hydrolyzed/m.

Q: And the MIC range (K. pneumoniae; [21])?
A: Its MIC range is 16 to 64 mg/L.

Q: And the MIC range (K. pneumoniae; [22])?
A: Its MIC range is 1 to 128 mg/L.

Q: And the MIC range (K. pneumoniae; resistance phenotype Kpn3 (K. pneumoniae Pit 68), 1 strain, listed as atm)?
A: Its MIC range is 2 mg/L.

Q: And the Hydrolysis [9]?
A: Its Hydrolysis is 0.9 nmol of substrate hydrolyzed/m.

Q: What about the Hydrolysis [10] of the same compound?
A: Its Hydrolysis is 0.9 nmol of substrate hydrolyzed/m.

Q: And the Hydrolysis [11]?
A: The Hydrolysis was 0.6 nmol of substrate hydrolyzed/m.

Q: With `CO/N=C(\C(=O)N[C@@H]1C(=O)N2C(C(=O)O)=C(COC(N)=O)CS[C@H]12)c1ccco1` [cefuroxime] as the compound, how does the Disk diffusion susceptibility (E. aerogenes [12]) read?
A: The Disk diffusion susceptibility was “resistant”.

Q: And the MicroScan susceptibility result (K. pneumoniae 225 [6]; K. pneumoniae 225)?
A: The MicroScan susceptibility result was “Resistant”.

Q: And the MIC (K. pneumoniae 225 [6])?
A: Its MIC is > 16 mg/L.
